According to US20150276568A1 (priority 2012, published 2015):

Experiments:
[1] = format: physicochemical; details: extraction time varied 0-60 minutes; dihexyl ether; 900 rpm
[2] = from reference [17]; cited from earlier work

Structure (SMILES) | Extraction time for PALME system to enter equilibrium [1] | Therapeutic range [2]
O=C(CCCN1CCC(O)(c2ccc(Cl)cc2)CC1)c1ccc(F)cc1 [Haloperidol] | 15 min | 
CCC(=O)C(CC(C)N(C)C)(c1ccccc1)c1ccccc1 (centres unmarked) [Methadone] | 15 min | 100 to 500 ng/mL
CNCCC=C1c2ccccc2CCc2ccccc21 [Nortriptyline] | 30 min | 
CCOC(=O)C1(c2ccccc2)CCN(C)CC1 [Pethidine] |  | 100 to 800 ng/mL
